Data set [1] deals with Green Peach Aphid (Myzus persicae). The experiment in a line: Insecticidal test for green peach aphid in foliar spray assay. Format: in vivo. As to conditions: 72 h, 200 ppm foliar spray on cabbage seedlings, live aphids counted after three days, Abbott's corrected % control, read-out: MYZUPE % Ctrl @ 200 ppm. On the procedure: Certain molecules disclosed in this document were tested against MYZUPE using procedures described in the following example. In the reporting of the results, the “MYZUPE, APHIGO and BEMITA Rating Table” was used (See Table Section).
Cabbage seedlings grown in 3-inch pots, with 2-3 small (3-5 cm) true leaves, were used as test substrate. The seedlings were infested with 20-50 green peach aphids (wingless adult and nymph stage) one day prior to chemical application. Four pots with individual seedlings were used for each treatment. Compounds (2 mg) were dissolved in 2 mL of acetone/methanol (1:1) solvent, forming stock solutions of 1000 ppm. The stock solutions were diluted 5× with 0.025% Tween 20 in H2O to obtain the test solution at 200 ppm. A hand-held Devilbiss sprayer was used for spraying a solution to both sides of cabbage leaves until runoff. Reference plants (solvent check) were sprayed with the diluent only. Treated plants were held in a holding room for three days at approximately 25° C. and 40% relative humidity (RH) prior to grading. Evaluation was conducted by counting the number of live aphids per plant under a microscope. Insecticidal activity data presented in Table 3 were generated by using Abbott's correction formula: Corrected%Control=100*(X−Y)/X • where X=No. of live aphids on solvent check plants • Y=No. of live aphids on treated plants

For data set [2], the system named is Sweetpotato Whitefly (Bemisia tabaci). The experiment in a line: Insecticidal test for sweetpotato whitefly in foliar spray assay. The class given is in vivo. To be noted: 200 ppm foliar spray on cotton plants infested with eggs, live nymphs counted after 8-9 days, Abbott's corrected % control, read-out: BEMITA % Ctrl @ 200 ppm. On the procedure:
Cotton plants were used as test substrate and were grown in 3-inch pots and pruned until only 1 small (3-5 cm) true leaf remained. The plants were then placed in a room with whitefly ([…]) adults and allowed to be infested with eggs. After a 2-3 day egg-laying period, plants were taken from the adult whitefly room and the adults were removed from the leaves using compressed air delivered through a hand-held Devilbiss sprayer (23 psi). Plants infested with eggs (100-300 eggs per plant) were placed in a controlled-environment room for 5-6 days at 82° F. and 50% RH until approximately 50% egg hatch. Four cotton plants (4 replicates) were used for each treatment. Compounds (2 mg) were dissolved in 1 mL of acetone solvent, forming stock solutions of 2000 ppm. The stock solutions were diluted 10× with 0.025% Tween 20 in H2O to obtain the test solution of 200 ppm. A hand-held Devilbiss sprayer was used for spraying a solution to both sides of cotton leaf until runoff. Reference plants (solvent check) were sprayed with the diluent only. Treated plants were held in a holding room for 8-9 days at approximately 82° F. and 50% RH prior to grading. Evaluation was conducted by counting the number of live nymphs per plant under a microscope. Insecticidal activity data presented in Table 3 were generated by using Abbott's correction formula: Corrected%Control=100*(X-Y)/X • where X=No. of live nymphs on solvent check plants • Y=No. of live nymphs on treated plants […]

Data set [3] concerns Cotton Aphid (Aphis gossypii). The data set is described as follows: Insecticidal test for cotton aphid in a foliar spray assay. Format: in vivo. As to conditions: 72 h, 200 ppm foliar spray on squash or cotton seedlings, live aphids counted after three days, Abbott's corrected % control, read-out: APHIGO % Ctrl @ 200 ppm. On the procedure: Squash or cotton seedlings with fully expanded cotyledon leaves were trimmed to one cotyledon per plant and infested with wingless adult and nymph stage cotton aphid (APHIGO) one day prior to chemical application. Each plant was examined before chemical application to ensure uniform infestation (ca. 30-70 aphids per plant). Compounds (2 mg) were dissolved in 2 mL of acetone/methanol (1:1) solvent, forming stock solutions of 1000 ppm. The stock solutions were diluted 5× with 0.025% Tween 20 in H2O to obtain a solution at 200 ppm. A hand-held Devilbiss aspirator type sprayer was used to apply the spray solutions until runoff to both sides of the squash cotyledon leaves. Four plants (4 replications) were used for each concentration of each compound. Reference plants (solvent check) were sprayed with the diluent only. Treated plants were held in a holding room for three days at approximately 25° C. and 40% RH before the number of live cotton aphids on each plant was recorded. Insecticidal activity data presented in Table 3 were generated by using Abbott's correction formula: Corrected%Control=100*(X−Y)/X • where X=No. of live aphids on solvent check plants • Y=No. of live aphids on treated plants

Bounds are passed on as bounds.

`CSCC1(C(=O)N(C)c2nnc(-c3cccnc3)s2)CC1` [Compound 44] yielded a melting point of 144 to 147 °C. The inhibition at 200 ppm in data set [1] was in the range of 80 to 100%. Also, in data set [2], the inhibition at 200 ppm was below 0%. Also, the inhibition at 200 ppm in data set [3] is 80 to 100%.

In the case of `CSCCC(=O)N(C)c1nnc(-c2cccnc2)s1` [Compound 1], the melting point was in the range of 99 to 101 °C. The inhibition at 200 ppm in data set [1] lay within 80 to 100%. In addition, the inhibition at 200 ppm in data set [2] was 0 to 80%. In data set [3], the inhibition at 200 ppm lay within 80 to 100%.

`CSCC(C)(C)C(=O)N(C)c1nnc(-c2cccnc2)s1` [Compound 24, N-2,2-trimethyl-3-(methylthio)-N-(5-(pyridin-3-yl)-1,3,4-thiadiazol-2-yl)propanamide] gave a melting point of 89 to 91 °C. The inhibition at 200 ppm in data set [1] lay in the range of 80 to 100%. Further, in data set [2], the inhibition at 200 ppm lay in the range of 0 to 80%. Also, the inhibition at 200 ppm in data set [3] was in the range of 80 to 100%.

As for `COCCC(=O)N(C)c1nnc(-c2cccnc2)s1` [Compound 3], the melting point was 92 to 97.5 °C. Also, the inhibition at 200 ppm in data set [1] lay in the range of 80 to 100%. Moreover, the inhibition at 200 ppm in data set [2] fell in the range of 0 to 80%. Also, the inhibition at 200 ppm in data set [3] lay within 80 to 100%.

Compound `COC(=O)CCC(=O)N(C)c1nnc(-c2cccnc2)s1` [Compound 56, methyl 4-(methyl-(5-(pyridin-3-yl)-1,3,4-thiadiazol-2-yl)amino)-4-oxobutanoate] showed a melting point of 152 to 154 °C. In data set [1], the inhibition at 200 ppm lay within 0 to 80%. The inhibition at 200 ppm in data set [2] is below 0%. The inhibition at 200 ppm in data set [3] was 80 to 100%.

The compound `CSCCC(=O)Nc1nnc(-c2cccnc2)s1` [Compound 7] registered a melting point of 211 to 212 °C. Also, the inhibition at 200 ppm in data set [1] is 0 to 80%. Moreover, the inhibition at 200 ppm in data set [2] fell in the range of 0 to 80%. Also, the inhibition at 200 ppm in data set [3] lay in the range of 0 to 80%.

Regarding `CCOC(=O)CCC(=O)N(C)c1nnc(-c2cccnc2)s1` [Compound 12], the melting point is 137 to 139 °C. For the same compound, the inhibition at 200 ppm in data set [1] was in the range of 0 to 80%. Also, the inhibition at 200 ppm in data set [2] is 0 to 80%. In addition, in data set [3], the inhibition at 200 ppm was in the range of 80 to 100%.

As for `COCCCC(=O)N(C)c1nnc(-c2cccnc2)s1` [Compound 19], the melting point is 92 to 95 °C. For the same compound, the inhibition at 200 ppm in data set [1] lay within 0 to 80%. Further, in data set [2], the inhibition at 200 ppm is 0 to 80%. Moreover, the inhibition at 200 ppm in data set [3] fell in the range of 80 to 100%.

For the compound `CN(C(=O)C1(C[S+](C)[O-])CC1)c1nnc(-c2cccnc2)s1` (centres unmarked) [Compound 45], the melting point fell in the range of 166 to 168 °C. Also, in data set [1], the inhibition at 200 ppm is 80 to 100%. The inhibition at 200 ppm in data set [2] lay in the range of 0 to 80%. The inhibition at 200 ppm in data set [3] was in the range of 80 to 100%.

`CN(C(=O)CC[S+](C)[O-])c1nnc(-c2cccnc2)s1` (centres unmarked) [Compound 18, N-methyl-3-(methylsulfinyl)-N-(5-(pyridin-3-yl)-1,3,4-thiadiazol-2-yl)propanamide] came in with a melting point of 138 to 140 °C. The inhibition at 200 ppm in data set [1] was in the range of 80 to 100%. Further, the inhibition at 200 ppm in data set [2] was in the range of 0 to 80%. Also, the inhibition at 200 ppm in data set [3] fell in the range of 80 to 100%.

For `CN(C(=O)C(C)(C)C/S(C)=N/C#N)c1nnc(-c2cccnc2)s1` (centres unmarked) [Compound 39, N-2,2-trimethyl-3-(methyl-N-cyano-sulfiliminyl)-N-(5-(pyridin-3-yl)-1,3,4-thiadiazol-2-yl)propanamide], the melting point was in the range of 42 to 52 °C. In addition, the inhibition at 200 ppm in data set [1] is 80 to 100%. Besides, the inhibition at 200 ppm in data set [2] was in the range of 0 to 80%. For the same compound, the inhibition at 200 ppm in data set [3] was 80 to 100%.

`CN(C(=O)OCC[S+](C)[O-])c1nnc(-c2cccnc2)s1` (centres unmarked) [Compound 51] had a melting point of 170 to 172 °C. Besides, the inhibition at 200 ppm in data set [1] is 80 to 100%. For the same compound, in data set [2], the inhibition at 200 ppm was in the range of 0 to 80%. In addition, the inhibition at 200 ppm in data set [3] was 80 to 100%.

`CN(C(=O)CCS(C)(=O)=O)c1nnc(-c2cccnc2)s1` [Compound 20, N-methyl-3-(methylsulfonyl)-N-(5-(pyridin-3-yl)-1,3,4-thiadiazol-2-yl)propanamide] showed a melting point of 199 to 201 °C. In addition, the inhibition at 200 ppm in data set [1] is 80 to 100%. Moreover, the inhibition at 200 ppm in data set [2] lay in the range of 0 to 80%. In data set [3], the inhibition at 200 ppm lay in the range of 80 to 100%.

Consider `CCSCCC(=O)N(C)c1nnc(-c2cccnc2)s1` [Compound 2], for which the melting point lay within 70 to 72 °C. Moreover, in data set [1], the inhibition at 200 ppm is 80 to 100%. The inhibition at 200 ppm in data set [2] was in the range of 0 to 80%. Moreover, the inhibition at 200 ppm in data set [3] fell in the range of 80 to 100%.

Compound `CC(C)SCCC(=O)N(C)c1nnc(-c2cccnc2)s1` [Compound 4] gave a melting point of 100 to 105 °C. For the same compound, the inhibition at 200 ppm in data set [1] was 80 to 100%. Moreover, in data set [2], the inhibition at 200 ppm lay within 0 to 80%. Also, the inhibition at 200 ppm in data set [3] was in the range of 80 to 100%.

Compound `CCS(=O)(=O)C(C)CC(=O)N(C)c1nnc(-c2cccnc2)s1` (centres unmarked) [Compound 43] showed a melting point of 175 to 177 °C. Further, the inhibition at 200 ppm in data set [1] was in the range of 0 to 80%. Besides, the inhibition at 200 ppm in data set [2] is below 0%. The inhibition at 200 ppm in data set [3] fell in the range of 80 to 100%.

In the case of `CSCC(=O)N(C)c1nnc(-c2cccnc2)s1` [Compound 29], the melting point fell in the range of 135 to 139 °C. In addition, the inhibition at 200 ppm in data set [1] lay within 80 to 100%. Besides, in data set [2], the inhibition at 200 ppm was 0 to 80%. Moreover, the inhibition at 200 ppm in data set [3] was in the range of 80 to 100%.

With `CN(C(=O)CCSCCc1ccccc1)c1nnc(-c2cccnc2)s1` [Compound 5], the melting point fell in the range of 105 to 108 °C. For the same compound, the inhibition at 200 ppm in data set [1] was in the range of 0 to 80%. In data set [2], the inhibition at 200 ppm lay in the range of 0 to 80%. Further, in data set [3], the inhibition at 200 ppm was 0 to 80%.

Compound `CN(C(=O)CCSCc1ccccc1)c1nnc(-c2cccnc2)s1` [Compound 11] registered a melting point of 116 to 118 °C. Besides, the inhibition at 200 ppm in data set [1] lay in the range of 0 to 80%. Moreover, in data set [2], the inhibition at 200 ppm fell in the range of 0 to 80%. In addition, the inhibition at 200 ppm in data set [3] lay in the range of 0 to 80%.

`CO/N=C(\C)CCC(=O)N(C)c1nnc(-c2cccnc2)s1` [Compound 48, 4-[(E)-methoxyimino]-pentanoic acid methyl-(5-pyridin-3-yl-[1,3,4]thiadiazol-2-yl)-amide] returned a melting point of 114 to 121 °C. Moreover, the inhibition at 200 ppm in data set [1] was in the range of 80 to 100%. Moreover, in data set [2], the inhibition at 200 ppm was in the range of 0 to 80%. Moreover, the inhibition at 200 ppm in data set [3] was 80 to 100%.

The values above are taken from patent publication US8912338B2, “Pesticidal compositions” (Dow AgroSciences LLC, priority 2010, dated 2014).
